Assay results: patent publication US9745266B2 (THE REGENTS OF THE UNIVERSITY OF COLORADO, A BODY CORPORATE, priority 2013, dated 2017)
In brackets after ≈: the same amount, converted by molar mass.

experiment: Mammalian cytotoxicity, CellTiter-Glo viability assay; format: cell-based, human; details: human, HeLa cells
Procedure: To evaluate the cytotoxicity of Of1 in mammalian cells, a cell viability assay was carried out using CellTiter-Glo luminescent cell viability assay kit (Promega). Human cervixcal adenocarcinoma HeLa cells were seeded on white, cell-culture treated 96-well plates (Corning: 3917) with Dulbecco's modified Eagle's medium (DMEM) supplemented with 10% fetal calf serum (FCS), 1% penicillin/streptomycin, at the densities of 20,000 cells/well. The medium volume for each well was 100 μL. Cells were incubated at 37° C. in 5% CO2/95% air for 16 hours. The medium was removed from each well and replaced with 99 μL of warmed fresh medium. To each well, 1 μL of Of1 analog was added in DMSO to final concentrations of 0.5-32 μg/mL. Each series was performed in triplicate. After incubation at 37° C. for another 24 hours, the plates were equilibrated to room temperature for 30 minutes. 100 μL of CellTiter-Glo reagent (Promega) was added to each well and mixed for 2 minutes on an orbital shaker. The plate was incubated at room temperature for another 10 minutes to stabilize luminescent signal. The luminescence of each sample was recorded in an Envision Multilabel Plate Reader (Perkin Elmer).

| SMILES | GI50 at 24 h [µg/mL] |
| --- | --- |
| C=C1CCCC2Nc3c(F)cc(Br)cc3C12CCNS(=O)(=O)c1ccc(Br)c(C(F)(F)F)c1 (stereo not shown) [Cpd 13m, 4-Bromo-N-[2-(6-bromo-8-fluoro-4-methylidene-2,3,4,4a,9,9a-hexahydro-1H-carbazol-4a-yl)ethyl]-3-(trifluoromethyl)benzene-1-sulfonamide] | 8.3 (≈ 13.6 µM) |
| C=C1CCCC2Nc3c(F)cc(Br)cc3C12CCNS(=O)(=O)c1ccc(Cl)nc1 (stereo not shown) [Cpd 13r, N-[2-(6-bromo-8-fluoro-4-methylidene-2,3,4,4a,9,9a-hexahydro-1H-carbazol-4a-yl)ethyl]-6-chloropyridine-3-sulfonamide] | 16.7 (≈ 33.3 µM) |
| C=C1CCCC2Nc3c(F)cc(Br)cc3C12CCNS(=O)(=O)c1ccc(Br)c(C)c1 (stereo not shown) [Cpd 13o, 4-bromo-N-[2-(6-bromo-8-fluoro-4-methylidene-2,3,4,4a,9,9a-hexahydro-1H-carbazol-4a-yl)ethyl]-3-methylbenzene-1-sulfonamide] | 12.5 (≈ 22.4 µM) |
| C=C1CCCC2Nc3c(F)cc(Br)cc3C12CCNS(=O)(=O)c1ccc(Br)c(F)c1 (stereo not shown) [Cpd 13k, 4-Bromo-N-[2-(6-bromo-8-fluoro-4-methylidene-2,3,4,4a,9,9a-hexahydro-1H-carbazol-4a-yl)ethyl]-3-fluorobenzene-1-sulfonamide] | 17.5 (≈ 31.1 µM) |
| C=C1CCCC2Nc3ccc(Cl)cc3C12CCNS(=O)(=O)c1ccc(Cl)cc1 (stereo not shown) [Cpd 6a, 4-Chloro-N-[2-(6-chloro-4-methylidene-2,3,4,4a,9,9a-hexahydro-1H-carbazol-4a-yl)ethyl]benzene-1-sulfonamide] | 35 (≈ 80 µM) |
| C=C1CCCC2Nc3c(F)cc(Br)cc3C12CCNS(=O)(=O)c1cc2ccccc2o1 (stereo not shown) [Cpd 13t, N-[2-(6-bromo-8-fluoro-4-methylidene-2,3,4,4a,9,9a-hexahydro-1H-carbazol-4a-yl)ethyl]-1-benzofuran-2-sulfonamide] | 12.3 (≈ 24.3 µM) |
| C=C1CCCC2Nc3ccc(Br)cc3C12CCNS(=O)(=O)c1ccc(I)cc1 (stereo not shown) [Cpd 12h, N-[2-(6-bromo-4-methylidene-2,3,4,4a,9,9a-hexahydro-1H-carbazol-4a-yl)ethyl]-4-iodobenzene-1-sulfonamide] | 33 (≈ 57.6 µM) |
| C=C1CCCC2Nc3ccc(Br)cc3C12CCNS(=O)(=O)c1ccc(Cl)c(Cl)c1 (stereo not shown) [Cpd 12i, N-[2-(6-bromo-4-methylidene-2,3,4,4a,9,9a-hexahydro-1H-carbazol-4a-yl)ethyl]-3,4-dichlorobenzene-1-sulfonamide] | 12.8 (≈ 24.8 µM) |
| C=C1CCCC2Nc3c(F)cc(Br)cc3C12CCNS(=O)(=O)c1ccc(NC(C)=O)cc1 (stereo not shown) [Cpd 13g, N-(4-{[2-(6-bromo-8-fluoro-4-methylidene-2,3,4,4a,9,9a-hexahydro-1H-carbazol-4a-yl)ethyl]sulfamoyl}phenyl)acetamide] | 32 (≈ 61.3 µM) |
| C=C1CCCC2Nc3c(F)cc(Br)cc3C12CCNS(=O)(=O)c1ccc(Br)cc1C(F)(F)F (stereo not shown) [Cpd 13l, 4-Bromo-N-[2-(6-bromo-8-fluoro-4-methylidene-2,3,4,4a,9,9a-hexahydro-1H-carbazol-4a-yl)ethyl]-2-(trifluoromethyl)benzene-1-sulfonamide] | 21 (≈ 34.3 µM) |
| C=C1CCCC2Nc3c(F)cc(Br)cc3C12CCNS(=O)(=O)c1ccc(C)cc1 (stereo not shown) [Cpd 13b, N-[2-(6-bromo-8-fluoro-4-methylidene-2,3,4,4a,9,9a-hexahydro-1H-carbazol-4a-yl)ethyl]-4-methylbenzene-1-sulfonamide] | 22 (≈ 45.9 µM) |
| C=C1CCCC2Nc3c(F)cc(Br)cc3C12CCNS(=O)(=O)c1ccc(Cl)cc1 (stereo not shown) [Cpd 6l, N-[2-(6-bromo-8-fluoro-4-methylidene-2,3,4,4a,9,9a-hexahydro-1H-carbazol-4a-yl)ethyl]-4-chlorobenzene-1-sulfonamide] | 18.1 (≈ 36.2 µM) |
| C=C1CCC[C@@H]2Nc3c(F)cc(Br)cc3[C@]12CCNS(=O)(=O)c1ccc(OC(F)F)c(Cl)c1 (relative stereo) | 15.4 (≈ 27.2 µM) |
| C=C1CCCC2Nc3c(F)cc(Br)cc3C12CCNS(=O)(=O)c1ccc(C#N)cc1 (stereo not shown) [Cpd 13h, N-[2-(6-bromo-8-fluoro-4-methylidene-2,3,4,4a,9,9a-hexahydro-1H-carbazol-4a-yl)ethyl]-4-cyanobenzene-1-sulfonamide] | 17 (≈ 34.7 µM) |
| C=C1CCCC2Nc3c(Cl)cc(Cl)cc3C12CCNS(=O)(=O)c1ccc(Cl)cc1 (stereo not shown) [Cpd 6k, 4-Chloro-N-[2-(6,8-dichloro-4-methylidene-2,3,4,4a,9,9a-hexahydro-1H-carbazol-4a-yl)ethyl]benzene-1-sulfonamide] | 13.6 (≈ 28.8 µM) |
| C=C1CCCC2Nc3c(F)cc(Br)cc3C12CCNS(=O)(=O)c1ccc(F)cc1 (stereo not shown) [Cpd 13c, N-[2-(6-bromo-8-fluoro-4-methylidene-2,3,4,4a,9,9a-hexahydro-1H-carbazol-4a-yl)ethyl]-4-fluorobenzene-1-sulfonamide] | 18.3 (≈ 37.9 µM) |
| C=C1CCCC2Nc3c(F)cc(Br)cc3C12CCNS(=O)(=O)c1cncc(Br)c1 (stereo not shown) [Cpd 13q, 5-bromo-N-[2-(6-bromo-8-fluoro-4-methylidene-2,3,4,4a,9,9a-hexahydro-1H-carbazol-4a-yl)ethyl]pyridine-3-sulfonamide] | 11.2 (≈ 20.5 µM) |
| C=C1CCCC2Nc3ccc(Br)cc3C12CCNS(=O)(=O)c1ccc(Br)cc1 (stereo not shown) [Cpd 12g, 4-Bromo-N-[2-(6-bromo-4-methylidene-2,3,4,4a,9,9a-hexahydro-1H-carbazol-4a-yl)ethyl]benzene-1-sulfonamide] | 40 (≈ 76 µM) |
| C=C1CCCC2Nc3c(F)cc(Br)cc3C12CCNS(=O)(=O)c1cn(C)cn1 (stereo not shown) [Cpd 13s, N-[2-(6-bromo-8-fluoro-4-methylidene-2,3,4,4a,9,9a-hexahydro-1H-carbazol-4a-yl)ethyl]-1-methyl-1H-imidazole-4-sulfonamide] | 23 (≈ 49 µM) |
| C=C1CCCC2Nc3c(F)cc(Br)cc3C12CCNS(=O)(=O)c1ccc(OC)cc1 (stereo not shown) [Cpd 13a, N-[2-(6-bromo-8-fluoro-4-methylidene-2,3,4,4a,9,9a-hexahydro-1H-carbazol-4a-yl)ethyl]-4-methoxybenzene-1-sulfonamide] | 49 (≈ 98.9 µM) |
| C=C1CCCC2Nc3c(F)cc(Br)cc3C12CCNS(=O)(=O)c1cc(Br)c(Br)s1 (stereo not shown) [Cpd 13p, 4,5-dibromo-N-[2-(6-bromo-8-fluoro-4-methylidene-2,3,4,4a,9,9a-hexahydro-1H-carbazol-4a-yl)ethyl]thiophene-2-sulfonamide] | 14.6 (≈ 23.2 µM) |
| C=C1CCCC2Nc3c(F)cc(Br)cc3C12CCNS(=O)(=O)c1ccc(I)cc1 (stereo not shown) [Cpd 13e, N-[2-(6-bromo-8-fluoro-4-methylidene-2,3,4,4a,9,9a-hexahydro-1H-carbazol-4a-yl)ethyl]-4-iodobenzene-1-sulfonamide] | 19.6 (≈ 33.1 µM) |
| C=C1CCCC2Nc3c(F)cc(Br)cc3C12CCNS(=O)(=O)c1ccc(Br)cc1 (stereo not shown) [Cpd 13d, 4-Bromo-N-[2-(6-bromo-8-fluoro-4-methylidene-2,3,4,4a,9,9a-hexahydro-1H-carbazol-4a-yl)ethyl]benzene-1-sulfonamide] | 22 (≈ 40.4 µM) |
| C=C1CCCC2Nc3c(F)cc(Br)cc3C12CCNS(=O)(=O)c1ccc(Br)c(Br)c1 (stereo not shown) [Cpd 13j, 3,4-Dibromo-N-[2-(6-bromo-8-fluoro-4-methylidene-2,3,4,4a,9,9a-hexahydro-1H-carbazol-4a-yl)ethyl]benzene-1-sulfonamide] | 20 (≈ 32.1 µM) |
| C=C1CCCC2Nc3c(F)cc(Br)cc3C12CCNS(=O)(=O)c1ccc(Cl)c(Cl)c1 (stereo not shown) [Cpd 13f, N-[2-(6-bromo-8-fluoro-4-methylidene-2,3,4,4a,9,9a-hexahydro-1H-carbazol-4a-yl)ethyl]-3,4-dichlorobenzene-1-sulfonamide] | 31 (≈ 58 µM) |
